Results reported in US20100130436A1, “CO-ADMINISTRATION OF RANOLAZINE AND CARDIAC GLYCOSIDES” (priority 2008, published 2010).
Values joined by “and” are separate entries in the source; they are usually repeats but may differ in a detail not shown here. Identical values can stand only once. Like-named read-outs stand apart in the source and are kept apart here.

Key:
[1] = tested on: [Na+]i of guinea pig isolated heart; experiment: 23Na-NMR spectroscopy of intracellular sodium concentration in isolated heart
Na+, K+-ATPase = experiment: Na+,K+-ATPase activity assay by 86Rb+ uptake of A7r5 cells; assay type: cell-based; settings: for 86Rb+ uptake: control = activity in presence of ouabain
Source text: The activity of Na^+, K^+-ATPase was inhibited 77% by 1 mmol/L ouabain in the absence (control) of ranolazine. Values of ^86Rb^+ uptake were 91±11, 98±2.5, and 93±8.3% of control (activity in presence of ouabain) in the presence of 3, 10, and 30 μmol/L ranolazine, respectively.

[2] = tested on: guinea pig isolated, perfused heart; experiment: 31P-NMR spectroscopy of energy-related phosphates and pHi in isolated heart
[3] = tested on: late sodium current (late INa); experiment: Whole-cell patch-clamp of late INa in isolated ventricular myocytes; assay type: cell-based, guinea pig
[4] = tested on: guinea pig isolated, perfused heart
[5] = tested on: isolated guinea pig papillary muscles
[6] = 0.75 μmol/L ouabain in the presence of 10 μmol/L ranolazine
[7] = 0.75 μmol/L ouabain in the presence of 10 μmol/L ranolazine, 60 min
[8] = ouabain 1 μmol/L, agent 10 μmol/L intracellular via patch pipette

COc1ccccc1OCC(O)CN1CCN(CC(=O)Nc2c(C)cccc2C)CC1 (stereo not drawn) [ranolazine]
[Na+]i plateau concentration ([1]; 1.3 μmol/L ouabain in the presence of 10 μmol/L ranolazine, n=8): 15.4 ± 0.45 mmol/L
[Na+]i ([1]; 10 μmol/L ranolazine for up to 30 min or 1 μmol/L TTX for 10 min, no ouabain): did not significantly change
ouabain-induced increase in [Na+]i ([1]; 3 or 10 μmol/L ranolazine given after 40 min of 0.75 μmol/L ouabain alone, pooled n=6, FIG. 8C): partially reversed
cardiac [Na+]i during normal perfusion ([1]; Example 1, RAN 10 μM): did not change
[Na+]i accumulation during ouabain treatment ([1]; Example 1, RAN 10 μM, P<0.01): reduced
decrease in the ouabain-induced rise of [Na+]i ([1]; FIG. 8E, Ran 3 and 10, TTX 0.5 and 1 μmol/L): concentration-dependent
[Na+]i ([1]; ranolazine 10 μmol/L for 30 min, no ouabain, n=5, control 6.9±0.6): 6.5 ± 0.4 mmol/L
level of [Na+]i in hearts previously exposed to ouabain alone for 40 min ([1]; ranolazine 10 μmol/L, 30 min, FIG. 8C): did not significantly reduce
86Rb+ uptake (Na+, K+-ATPase; 3 μmol/L ranolazine): 91±11 % of control
86Rb+ uptake (Na+, K+-ATPase; 10 μmol/L ranolazine): 98±2.5 % of control
86Rb+ uptake (Na+, K+-ATPase; 30 μmol/L ranolazine): 93±8.3 % of control
effect on sodium pump activity (Na+, K+-ATPase; 3, 10, 30 μmol/L ranolazine): no measurable effect
[Pi] increase [2, 6]: 1.3±0.1 times
fall in pHi [2, 6]: not significant
[ATP] [2, 7]: did not change significantly
[PCr] decrease from baseline [2, 7]: 19±5%
[Pi] increase ([2]; Example 1, RAN + ouabain): 14%
pH ([2]; Example 1, RAN + ouabain): remained constant
ATP and PCr decrease ([2]; Example 1, RAN pretreatment, after 60 min of ouabain treatment): 20%
decrease of |ΔG~ATP| ([2]; ouabain in the presence of 10 μmol/L ranolazine): 1.9 ± 0.6 kJ/mol
concentrations of phosphates or pHi ([2]; ranolazine alone for 10 min): did not alter
effect of 1 μmol/L ouabain to increase late INa ([3]; FIG. 9, ranolazine 10 μmol/L or TTX 3 μmol/L): partially reversed
reduction of late INa ([3]; ranolazine 10 μmol/L in the continuous presence of ouabain 1 μmol/L, n=8): 69±9%
late INa ([3]; ranolazine 10 μmol/L in the continuous presence of ouabain, from 99.6±15.2, n=8): 50.6±13.6 pC/pF
effect of ouabain to cause contractile dysfunction [4]: attenuated
mechanical dysfunction (increase in end diastolic pressure, episodes of cardiac standstill) [4]: not observed
occurrence of episodes of cardiac standstill caused by ouabain [4]: reduced
maximum value of RPP ([4]; 0.75 μmol/L ouabain + 3 μmol/L ranolazine, n=8): 40,033±1,477 mmHg/min
positive inotropic response to ouabain during the 60-min exposure ([4]; 0.75 μmol/L ouabain + 5 μmol/L ranolazine): not sustained at a maximal level
maximum value of RPP ([4]; 0.75 μmol/L ouabain + 5 μmol/L ranolazine, n=5): 38,874±2,904 mmHg/min
maximum value of RPP ([4]; 0.75 μmol/L ouabain + 10 μmol/L ranolazine, n=8): 41,079±2,097 mmHg/min
positive inotropic response to ouabain ([4]; Example 1, RAN 10 μM, ouabain 0.75-1.3 μM for 60 min): did not reduce
systolic pressure during Ranolazine delivery ([4]; FIG. 2, 3.3 uM Ran pretreatment): slight drop
maximal inotropic effect of ouabain ([4]; FIG. 2, heart pretreated with 3.3 uM Ran): the same as in the ouabain alone treated hearts
SP (systolic pressure) ([4]; FIG. 3, 5 uM Ran): transient decrease
maximal positive inotropic effect of ouabain ([4]; FIG. 3, 5 uM Ran): not reduced
left ventricular contractile function over the duration of the experiment ([4]; FIG. 4, heart pretreated with 10 uM Ran): stable contractile function
ability of ouabain to significantly increase the pos dP/dt ([4]; FIG. 6): did not affect
RPP increase upon infusion with ouabain ([4]; FIG. 6, hearts pretreated with 10 uM ranolazine): reached the same value as in the absence of ranolazine
RPP during the wash out period ([4]; FIG. 6, ouabain in the presence of ranolazine vs ouabain alone): improved
decrease of RPP (rate pressure product) ([4]; FIG. 6, pretreatment with 10 uM ranolazine, before ouabain): about 20%
developed pressure ([4]; FIG. 7, ouabain, hearts treated with 10 uM ranolazine): increased
LVDevP at the end of washout ([4]; ouabain + 3 μmol/L ranolazine): 59.2±5.5 mmHg
positive inotropic effect of ouabain throughout the 60-min exposure ([4]; ouabain + 10 μmol/L ranolazine (n=8) or 1 μmol/L TTX (n=6)): sustained
episodes of cardiac standstill and changes in LVEDP ([4]; ouabain + 10 μmol/L ranolazine or 1 μmol/L TTX): neither episodes of cardiac standstill nor changes in LVEDP were observed
LVDevP at the end of washout ([4]; ouabain + 5 or 10 μmol/L ranolazine or 1 μmol/L TTX): not significantly different from control
recovery of contractile function after drug washout ([4]; ouabain + 5 or 10 μmol/L ranolazine or 1 μmol/L TTX, vs ouabain alone): better recovery
LVSP decrease ([4]; ranolazine alone 3 μmol/L): 8%
LVSP decrease ([4]; ranolazine alone 5 μmol/L): 16.7%
LVSP decrease ([4]; ranolazine alone 10 μmol/L): 15.8%
increase of diastolic tension during ouabain treatment ([5]; 5 and 10 μmol/L ranolazine and 1 μmol/L TTX): attenuated

NC1=N[C@H](O)[C@H]2[C@H]3O[C@]4(O)O[C@@H]([C@@H](O)[C@@]2(N1)[C@@H]4O)[C@]3(O)CO [TTX, tetrodotoxin]
[Na+]i [1]: did not significantly change
[Na+]i plateau concentration [1]: 10.5 ± 0.3 mmol/L
decrease in the ouabain-induced rise of [Na+]i [1]: concentration-dependent
effect of 1 μmol/L ouabain to increase late INa [3]: partially reversed
late INa [3]: 21.2±7.9 pC/pF
ouabain-induced late current [3]: completely inhibited
LVSP decrease [4]: 9% and 18.2%
effect of ouabain to cause contractile dysfunction [4]: attenuated
episodes of cardiac standstill and changes in LVEDP [4]: neither episodes of cardiac standstill nor changes in LVEDP were observed
maximum value of RPP [4]: 35,569±1,850 mmHg/min and 39,182±2,216 mmHg/min
occurrence of episodes of cardiac standstill caused by ouabain [4]: reduced
positive inotropic effect of ouabain throughout the 60-min exposure [4]: sustained
recovery of contractile function after drug washout [4]: better recovery
responses of hearts exposed to ouabain [4]: comparable to those exposed to ouabain in the presence of 3 union ranolazine
increase of diastolic tension during ouabain treatment [5]: attenuated

COc1ccc(S(=O)(=O)Nc2ccccc2CN(C)C/C=C/c2ccc(Cl)cc2)cc1 [KN-92]
effect of ouabain (1 μmol/L) to increase late INa ([3]; FIG. 10, intracellular KN-93 10 μmol/L, EGTA 1 mmol/L, KN-92 10 μmol/L): not
increase of late INa at the end of a 10-min exposure to ouabain [3, 8]: 273±39%
late INa at the end of a 10-min exposure to ouabain [3, 8]: 72±7 pC/pF
